ChEMBL document CHEMBL4330083, “Synthesis and evaluation of isoprenylation-resveratrol dimer derivatives against Alzheimer's disease” (Eur J Med Chem, 2019)
Calls of active or inactive are those of the source. No cut-off for these calls is given here.

Experiments:
[1] = Neuroprotection against LPS-induced inflammation in […] cells assessed as reduction in ROS production by measuring mean fluorescence intensity at 5 uM after 18 hrs by DCFH-DA staining-based flow cytometric analysis (reference value: 70385); assay type: functional
PC-12 [2] = assay: (§1) Neuroprotection against H2O2-induced oxidative damage in rat PC12 cells assessed as reduction in ROS production by measuring mean fluorescence intensity at 10 uM preincubated for 4 hrs followed by H2O2 addition measured after 24 hrs by DCFH-DA staining-based flow cytometric analysis (reference value: 82616); assay type: functional
PC-12 [3] = assay: Neuroprotection against H2O2-induced oxidative damage in rat PC12 cells assessed as intracellular Ca2+ level by measuring mean fluorescence intensity at 5 uM after 24 hrs in presence of H2O2 by Fluo-3/AM staining based flow cytometric analysis (reference value: 43156); assay type: functional
[4] = Neuroprotection against LPS-induced inflammation in […] cells assessed as reduction in ROS production by measuring mean fluorescence intensity at 10 uM after 18 hrs by DCFH-DA staining-based flow cytometric analysis (reference value: 70385); assay type: functional
PC-12 [5] = assay: as §1, with “2.5” for “10”; assay type: functional
PC-12 [6] = assay: Neuroprotection against H2O2-induced oxidative damage in rat PC12 cells assessed as late apoptotic cells at 10 uM after 24 hrs in presence of H2O2 by annexin V-FITC/propidium iodide staining based flow cytometric analysis (reference value: 29.8%); assay type: functional
PC-12 [7] = assay: Neuroprotection against H2O2-induced oxidative damage in rat PC12 cells assessed as viable cells at 2.5 uM after 24 hrs in presence of H2O2 by annexin V-FITC/propidium iodide staining based flow cytometric analysis (reference value: 63.6%); assay type: functional; details: PC-12, 24 h, read-out: Activity
PC-12 [8] = assay: Neuroprotection against H2O2-induced oxidative damage in rat PC12 cells assessed as necrotic cells at 10 uM after 24 hrs in presence of H2O2 by annexin V-FITC/propidium iodide staining based flow cytometric analysis (reference value: 4.5%); assay type: functional
PC-12 [9] = assay: Neuroprotection against H2O2-induced oxidative damage in rat PC12 cells assessed as necrotic cells at 5 uM after 24 hrs in presence of H2O2 by annexin V-FITC/propidium iodide staining based flow cytometric analysis (reference value: 4.5%); assay type: functional
PC-12 [10] = assay: as §1, with “5” for “10”; assay type: functional
[11] = Neuroprotection against H2O2-induced inflammation in […] cells assessed as reduction in ROS production by measuring mean fluorescence intensity at 5 uM after 18 hrs by DCFH-DA staining-based flow cytometric analysis (reference value: 11273); assay type: functional
[12] = Neuroprotection against H2O2-induced inflammation in […] cells assessed as reduction in ROS production by measuring mean fluorescence intensity at 10 uM after 18 hrs by DCFH-DA staining-based flow cytometric analysis (reference value: 11273); assay type: functional
[13] = Neuroprotection against LPS-induced inflammation in […] cells assessed as reduction in ROS production by measuring mean fluorescence intensity at 2.5 uM after 18 hrs by DCFH-DA staining-based flow cytometric analysis (reference value: 70385); assay type: functional
PC-12 [14] = assay: Neuroprotection against H2O2-induced oxidative damage in rat PC12 cells assessed as early apoptotic cells at 2.5 uM after 24 hrs in presence of H2O2 by annexin V-FITC/propidium iodide staining based flow cytometric analysis (reference value: 2.1%); assay type: functional
PC-12 [15] = assay: Neuroprotection against H2O2-induced oxidative damage in rat PC12 cells assessed as intracellular Ca2+ level by measuring mean fluorescence intensity at 2.5 uM after 24 hrs in presence of H2O2 by Fluo-3/AM staining based flow cytometric analysis (reference value: 43156); assay type: functional
PC-12 [16] = assay: Neuroprotection against H2O2-induced oxidative damage in rat PC12 cells assessed as necrotic cells at 2.5 uM after 24 hrs in presence of H2O2 by annexin V-FITC/propidium iodide staining based flow cytometric analysis (reference value: 4.5%); assay type: functional
PC-12 [17] = assay: as §1, with “5” for “10”, “102489)” for “82616)”; assay type: functional
PC-12 [18] = assay: Neuroprotection against H2O2-induced oxidative damage in rat PC12 cells assessed as late apoptotic cells at 10 uM after 24 hrs in presence of H2O2 by annexin V-FITC/propidium iodide staining based flow cytometric analysis (reference value: 6.2%); assay type: functional
[19] = Neuroprotection against H2O2-induced inflammation in […] cells assessed as reduction in ROS production by measuring mean fluorescence intensity at 10 uM after 18 hrs by DCFH-DA staining-based flow cytometric analysis (reference value: 20004); assay type: functional
[20] = Neuroprotection against LPS-induced inflammation in […] cells assessed as reduction in ROS production by measuring mean fluorescence intensity at 5 uM after 18 hrs by DCFH-DA staining-based flow cytometric analysis (reference value: 56792); assay type: functional
[21] = Neuroprotection against H2O2-induced inflammation in […] cells assessed as reduction in ROS production by measuring mean fluorescence intensity at 5 uM after 18 hrs by DCFH-DA staining-based flow cytometric analysis (reference value: 20004); assay type: functional
PC-12 [22] = assay: Neuroprotection against H2O2-induced oxidative damage in rat PC12 cells assessed as early apoptotic cells at 10 uM after 24 hrs in presence of H2O2 by annexin V-FITC/propidium iodide staining based flow cytometric analysis (reference value: 29.3%); assay type: functional
[23] = Neuroprotection against H2O2-induced inflammation in human BV2 cells assessed as reduction in ROS production by measuring mean fluorescence intensity at 2.5 uM after 18 hrs by DCFH-DA staining-based flow cytometric analysis (reference value: 20004); assay type: functional
[24] = Neuroprotection against LPS-induced inflammation in human BV2 cells assessed as reduction in ROS production by measuring mean fluorescence intensity at 10 uM after 18 hrs by DCFH-DA staining-based flow cytometric analysis (reference value: 56792); assay type: functional
PC-12 [25] = assay: Neuroprotection against H2O2-induced oxidative damage in rat PC12 cells assessed as late apoptotic cells at 2.5 uM after 24 hrs in presence of H2O2 by annexin V-FITC/propidium iodide staining based flow cytometric analysis (reference value: 6.2%); assay type: functional
PC-12 [26] = assay: Neuroprotection against H2O2-induced oxidative damage in rat PC12 cells assessed as late apoptotic cells at 5 uM after 24 hrs in presence of H2O2 by annexin V-FITC/propidium iodide staining based flow cytometric analysis (reference value: 6.2%); assay type: functional
PC-12 [27] = assay: Neuroprotection against H2O2-induced oxidative damage in rat PC12 cells assessed as increase in mitochondrial membrane potential at 2.5 to 10 uM after 24 hrs in presence of H2O2 by JC-1 staining based flow cytometric analysis; assay type: functional, cell-based
[28] = Neuroprotection against LPS-induced inflammation in human BV2 cells assessed as reduction in ROS production by measuring mean fluorescence intensity at 2.5 uM after 18 hrs by DCFH-DA staining-based flow cytometric analysis (reference value: 56792); assay type: functional

SMILES: CC(C)=CCc1c(O)cc(/C=C/c2ccc3c(c2)[C@H](c2cc(O)c4c(c2)OC(C)(C)CC4)[C@@H](c2ccc(O)cc2)O3)cc1O
- Flu intensity [1]: 51980
- Flu intensity (PC-12 [2]): 56274
- Flu intensity (PC-12 [3]): 37986
- Flu intensity [4]: 43811
- Flu intensity (PC-12 [5]): 61043
- Activity (PC-12 [6]): 4.8%
- viability at 2.5 µM (PC-12 [7]): 68%
- Activity (PC-12 [8]): 0.6%
- Activity (PC-12 [9]): 1.8%
- Flu intensity (PC-12 [10]): 58560
- Flu intensity [11]: 9218
- Flu intensity [12]: 7407
- Flu intensity [13]: 55345
- Activity (PC-12 [14]): 2.1%
- Flu intensity (PC-12 [15]): 40869
- Activity (PC-12 [16]): 4.8%

SMILES: CC(C)=CCc1c(O)cc(/C=C/c2ccc3c(c2)[C@H](c2cc(O)c(CC=C(C)C)c(O)c2)[C@@H](c2ccc(O)cc2)O3)cc1O
- Flu intensity (PC-12 [17]): 85417
- Activity (PC-12 [18]): 0.7%
- Flu intensity [19]: 8220
- Flu intensity [20]: 28450
- Flu intensity [21]: 11602
- Activity (PC-12 [22]): 10.3%
- Flu intensity [23]: 14563
- Flu intensity [24]: 24076
- Activity (PC-12 [25]): 4.2%
- Activity (PC-12 [26]): 4%
- Activity (PC-12 [27]): Active
- Flu intensity [28]: 31340
